Source: patent US11292788B2, “IL-17 and IFN-gamma inhibition for the treatment of autoimmune diseases and chronic inflammation” (Immunic AG, priority 2017, dated 2022)
Where two headings read alike, the source gives them in different places.

How the values were obtained:
IL-17A = assay: Cytokine assay: IL-17A production by human PBMC stimulated with PHA; format: cell-based; conditions: IC50 class, read-out: IL-17A Inhib.
Procedure, shortened: (§1)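 Compounds were titrated semilogarithmically for IC50, or screened at 10, 1, 0.1 and 0.01 μM, on healthy-donor PBMC stimulated for 48 h with 2 μg/ml PHA at 1×10^5 cells/well. Cytokines in culture supernatants were then quantified by ELISA or Luminex bead assay.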

IL-17F = assay: Cytokine assay: IL-17F production by human PBMC stimulated with PHA; format: cell-based; conditions: IC50 class, read-out: IL-17F Inhib.
Procedure, shortened: as §1

INF-γ = assay: Cytokine assay: INF-γ production by human PBMC stimulated with PHA; format: cell-based; conditions: IC50 class, read-out: IFN-gamma Inhib.
Procedure, shortened: as §1

[1] = Microsomal stability: incubation with human liver microsomes, residual parent compound by HPLC-MS/MS; format: in vitro ADME; conditions: up to 60 min, read-out: t1/2 hLM
Protocol: Metabolic stability of compounds of the present invention was determined by incubation with human liver microsomes and subsequent determination of residual amount of the respective compound (“parent compound”) by HPLC-MS/MS.
In order to achieve this, in a final reaction volume of 1000 μl, each compound was incubated at a final concentration of 1 μM with 0.5 mg/ml human liver microsomes (HLM Pool 50 Donors, 20 mg/ml, BD Gentest, #452156, LotNr 88114) in 0.1 M Potassium phosphate buffer at pH 7.4, with a cofactor in form of a NADPH regenerating system (Promega, #V9510) according to the manufacturers' specifications. The final DMSO concentration in each sample was 0.4%. The incubation was performed at 37° C. under shaking conditions (Thermomixer, 1400 rpm) for different time intervals up to 60 min. To stop the reaction, for each time point 200 μl of the reaction were taken out and 200 μl ice-cold acetonitrile was added. Then, the samples were centrifuged (4° C., 14000*g for 15 min). The supernatant was analyzed for residual parent compound concentration and scanned for metabolites using HPLC-MS/MS. By using optimized MS methods for each compound, the peak area under curve for the compound specific signal is determined. The change of the peak areas over the assay time of 60 min resemble the remaining parent compound in % of T0. By these points, a balancing line was set. The half-time, as well as the clearance, can then be calculated on the basis of the slope.

[2] = human liver microsomes 0.5 mg/ml, compound 1 μM, pH 7.4, 37° C.
[3] = pH 7.4, human liver microsomes, 1 μM compound, 0.5 mg/ml HLM, 37° C.

| SMILES | IC50 (IL-17A; Homo sapiens, PBMC) [nM] | IC50 (IL-17F; Homo sapiens, PBMC) [nM] | IC50 (INF-γ; Homo sapiens, PBMC) [nM] | half-life at 1 μM [1, 2] [min] | IC50 (IL-17A) [nM] | IC50 (IL-17F) [nM] | IC50 (INF-γ) [nM] | half-life at 1 μM [1, 3] [min] |
| --- | --- | --- | --- | --- | --- | --- | --- | --- |
| COC(=O)c1c(-c2ccccc2Cl)noc1-c1cnn([C@H]2C[C@](C)(O)C2)c1C [Example 18, methyl 3-(2-chlorophenyl)-5-(1-(3-hydroxy-3-methylcyclobutyl)-5-methyl-1H-pyrazol-4-yl)isoxazole-4-carboxylate] |  |  |  | > 100 | 50 to 500 | < 50 | < 50 |  |
| CC(C)(O)Cn1ncc(-c2onc(-c3c(F)cccc3Cl)c2C(=O)OC2CC2)c1C(F)(F)F [Example 55, cyclopropyl 3-(2-chloro-6-fluorophenyl)-5-[1-(2-hydroxy-2-methylpropyl)-5-(trifluoromethyl)-1H-pyrazol-4-yl]-1,2-oxazole-4-carboxylate] | < 50 | < 50 | < 50 | 40 to 100 |  |  |  |  |
| C[C@@H](O)Cn1ncc(-c2onc(-c3c(F)cccc3Cl)c2C(=O)OC2COC2)c1C(F)(F)F [Example 58, oxetan-3-yl 3-(2-chloro-6-fluorophenyl)-5-{1-[(2R)-2-hydroxypropyl]-5-(trifluoromethyl)-1H-pyrazol-4-yl}-1,2-oxazole-4-carboxylate] | 50 to 500 | < 50 | < 50 | 40 to 100 |  |  |  |  |
| Cc1c(-c2onc(-c3c(F)cccc3Cl)c2C(=O)OC2CC2)cnn1[C@H]1C[C@@](C)(O)C1 [Example 61, cyclopropyl 3-(2-chloro-6-fluorophenyl)-5-{5-methyl-1-[3-hydroxy-3-methylcyclobutyl]-1H-pyrazol-4-yl}-1,2-oxazole-4-carboxylate] | < 50 | < 50 | < 50 | 40 to 100 |  |  |  |  |
| COCc1c(-c2c(F)cccc2Cl)noc1-c1cnn([C@H]2C[C@@](C)(O)C2)c1C(F)(F)F [Example 69, 3-(4-(3-(2-chloro-6-fluorophenyl)-4-(methoxymethyl)isoxazol-5-yl)-5-(trifluoromethyl)-1H-pyrazol-1-yl)-1-methylcyclobutan-1-ol] | 50 to 500 | 50 to 500 | < 50 | > 100 |  |  |  |  |
| C[C@@H](O)Cn1ncc(-c2onc(-c3c(F)cccc3Cl)c2COC2CC2)c1C(F)(F)F [Example 85, (2R)-1-(4-(3-(2-chloro-6-fluorophenyl)-4-(cyclopropoxymethyl)isoxazol-5-yl)-5-(trifluoromethyl)-1H-pyrazol-1-yl)propan-2-ol] | < 50 | < 50 | < 50 | 10 to 40 |  |  |  |  |
| C[C@]1(O)C[C@@H](n2ncc(-c3onc(-c4c(F)cccc4Cl)c3COC3CC3)c2C(F)(F)F)C1 [Example 86, 3-(4-(3-(2-chloro-6-fluorophenyl)-4-(cyclopropoxymethyl)isoxazol-5-yl)-5-(trifluoromethyl)-1H-pyrazol-1-yl)-1-methylcyclobutan-1-ol] | < 50 | < 50 | < 50 | > 100 |  |  |  |  |
| C[C@]1(O)C[C@@H](n2ncc(-c3onc(-c4cccc(OCCN5CCOCC5)c4Cl)c3COC3CC3)c2C(F)(F)F)C1 [Example 92, 3-(4-(3-(2-chloro-3-(2-morpholinoethoxy)phenyl)-4-(cyclopropoxymethyl)isoxazol-5-yl)-5-(trifluoromethyl)-1H-pyrazol-1-yl)-1-methylcyclobutan-1-ol] | < 50 | < 50 | < 50 |  |  |  |  | 2 to 9.99 |
| C[C@@H](O)Cn1ncc(-c2onc(-c3c(F)cccc3Cl)c2-c2ncccn2)c1C(F)(F)F [Example 97, (R)-1-(4-(3-(2-chloro-6-fluorophenyl)-4-(pyrimidin-2-yl)isoxazol-5-yl)-5-(trifluoromethyl)-1H-pyrazol-1-yl)propan-2-ol] | < 50 | < 50 | < 50 |  |  |  |  | 40 to 100 |
| C[C@]1(O)C[C@@H](n2ncc(-c3onc(-c4c(F)cccc4Cl)c3-c3ncccn3)c2C(F)(F)F)C1 [Example 98, 3-(4-(3-(2-chloro-6-fluorophenyl)-4-(pyrimidin-2-yl)isoxazol-5-yl)-5-(trifluoromethyl)-1H-pyrazol-1-yl)-1-methylcyclobutanol] | < 50 | < 50 | < 50 |  |  |  |  | > 100 |

The remaining lines, values ahead:

| IC50 (IL-17A; Homo sapiens, PBMC) [nM] | IC50 (IL-17F; Homo sapiens, PBMC) [nM] | IC50 (INF-γ; Homo sapiens, PBMC) [nM] | half-life at 1 μM [1, 2] [min] | IC50 (IL-17A) [nM] | IC50 (IL-17F) [nM] | IC50 (INF-γ) [nM] | half-life at 1 μM [1, 3] [min] | SMILES |
| --- | --- | --- | --- | --- | --- | --- | --- | --- |
| < 50 | < 50 | < 50 | 10 to 40 |  |  |  |  | CCC(O)Cn1ncc(-c2onc(-c3c(F)cccc3Cl)c2-c2nccs2)c1C(F)(F)F (racemic) [Example 6, 1-{4-[3-(2-chloro-6-fluorophenyl)-4-(1,3-thiazol-2-yl)-1,2-oxazol-5-yl]-5-(trifluoromethyl)-1H-pyrazol-1-yl}butan-2-ol] |
| < 50 | < 50 | < 50 | 10 to 40 |  |  |  |  | OC(Cn1ncc(-c2onc(-c3c(F)cccc3Cl)c2-c2nccs2)c1C(F)(F)F)C(F)(F)F (racemic) [Example 7, 3-{4-[3-(2-chloro-6-fluorophenyl)-4-(1,3-thiazol-2-yl)-1,2-oxazol-5-yl]-5-(trifluoromethyl)-1H-pyrazol-1-yl}-1,1,1-trifluoropropan-2-ol] |
| < 50 | < 50 | < 50 | > 100 |  |  |  |  | CC(C)(O)CCn1ncc(-c2onc(-c3c(F)cccc3Cl)c2-c2nccs2)c1C(F)(F)F [Example 3, 4-(4-(3-(2-chloro-6-fluorophenyl)-4-(thiazol-2-yl)isoxazol-5-yl)-5-(trifluoromethyl)-1H-pyrazol-1-yl)-2-methylbutan-2-ol] |
| < 50 | < 50 | < 50 | 10 to 40 |  |  |  |  | C[C@@H](O)Cn1ncc(-c2onc(-c3c(F)cccc3Cl)c2-c2nccs2)c1C(F)(F)F [Example 4, (2R)-1-(4-(3-(2-chloro-6-fluorophenyl)-4-(thiazol-2-yl)isoxazol-5-yl)-5-(trifluoromethyl)-1H-pyrazol-1-yl)propan-2-ol] |
| < 50 | 50 to 500 | < 50 | 40 to 100 |  |  |  |  | C[C@H](O)Cn1ncc(-c2onc(-c3c(F)cccc3Cl)c2-c2nccs2)c1C(F)(F)F [Example 5, (2S)-1-(4-(3-(2-chloro-6-fluorophenyl)-4-(thiazol-2-yl)isoxazol-5-yl)-5-(trifluoromethyl)-1H-pyrazol-1-yl)propan-2-ol] |
| < 50 | < 50 | < 50 | 2 to 9.99 |  |  |  |  | CCOC(=O)c1c(-c2c(F)cccc2Cl)noc1-c1cnn(C[C@@H](O)C(F)(F)F)c1C(F)(F)F [Example 16, ethyl 3-(2-chloro-6-fluorophenyl)-5-{1-[(2R)-3,3,3-trifluoro-2-hydroxypropyl]-5-(trifluoromethyl)-1H-pyrazol-4-yl}-1,2-oxazole-4-carboxylate] |
| < 50 | 50 to 500 | < 50 | > 100 |  |  |  |  | COC(=O)c1c(-c2ccccc2Cl)noc1-c1cnn(CCC(C)(C)O)c1C [Example 19, methyl 3-(2-chlorophenyl)-5-[1-(3-hydroxy-3-methylbutyl)-5-methyl-1H-pyrazol-4-yl]-1,2-oxazole-4-carboxylate] |
| 50 to 500 | 50 to 500 | < 50 | 10 to 40 |  |  |  |  | COC(=O)c1c(-c2c(F)cccc2Cl)noc1-c1cnn(C[C@H](C)O)c1C(F)(F)F [Example 23, methyl (S)-3-(2-chloro-6-fluorophenyl)-5-(1-(2-hydroxypropyl)-5-(trifluoromethyl)-1H-pyrazol-4-yl)isoxazole-4-carboxylate] |
| < 50 | < 50 | < 50 | > 100 |  |  |  |  | COC(=O)c1c(-c2cccc(OC)c2Cl)noc1-c1cnn(CCC(C)(C)O)c1C [Example 25, methyl 3-(2-chloro-3-methoxyphenyl)-5-[1-(3-hydroxy-3-methylbutyl)-5-methyl-1H-pyrazol-4-yl]-1,2-oxazole-4-carboxylate] |
|  |  | < 50 | > 100 | < 50 | < 50 |  |  | Cc1c(-c2onc(-c3ccccc3Cl)c2C(=O)OC2CC2)cnn1[C@H]1C[C@@](C)(O)C1 [Example 53, cyclopropyl 3-(2-chlorophenyl)-5-{5-methyl-1-[3-hydroxy-3-methylcyclobutyl]-1H-pyrazol-4-yl}-1,2-oxazole-4-carboxylate] |
